Patent publication US20180353501A1 (Arvinas, Inc., priority 2017, published 2018)

Experiments:
p38α [1] = molecular target: T1, p38α (Homo sapiens, UniProt Q16539); assay: Western blot survey of p38 isoform degradation in MDA-MB-231 cells (incl. proteasome rescue, CHX chase, washout); type: cell-based; details: MDA-MB-231 cells, western blot; for Dmax: read-out: p38α Dmax (maximum percentage of degradation achieved)
T1 construct: selectively degrades p38α, whereas exemplary PROTAC 46 (10-atom linker, phenyl attachment) selectively degrades p38δ in MDA-MB-231 cells; endogenous in cells; host or cells: MDA-MB-231
Experimental: (§1) FIGS. 11A and 11B. Survey of p38 isoform degradation with foretinib-based VHL PROTACs (related to FIGS. 9A-9C and Table 13). (A) Western blots of amide series PROTACs tested in increasing concentrations (0.025, 0.100, 0.250, 1.0, 5.0 μM) on MDA-MB-231 cells, in duplicate. (B) Same as in (A) but with the phenyl series PROTACs. Summary table of the DC50 (concentration at which half-maximal degradation is achieved) and Dmax (maximum percentage of degradation achieved) is reported, per exemplary PROTAC, in Table 13.
(§2) FIGS. 13A, 13B, 13C, and 13D. Exemplary compounds 50 and 46 degrade p38 isoforms in a manner that is rapid, sustained, and proteasome-dependent. (A) MDA-MB-231 cells were either pre-treated or not with the proteasome inhibitor epoxomicin (1 μM) or the neddylation inhibitor MLN4924 (1 μM) for 30 minutes and subsequently treated with either vehicle (DMSO), exemplary compound 50 (250 nM), or exemplary compound 46 (250 nM) for 6 hours. (B) Quantitative real-time PCR was performed after 24 hours of treatment with either vehicle (DMSO), exemplary compound 50 (250 nM), or exemplary compound 46 (250 nM) in MDAMB-231 cells. The dotted line represents DMSO-treated conditions standardized to a value of 1.0 and mRNA abundance (per treatment group) is represented as a foldchange relative to that value. Data is based on biological duplicates and is normalized to beta-tubulin. (C) Cycloheximide (CHX) chase assay. MDA-MB-231 cells were pre-treated with 100 μg/mL CHX for 1 hour prior to treating for the indicated times with either vehicle (DMSO), exemplary compound 50 (250 nM), or exemplary compound 46 (250 nM). Tubulin-normalized p38α and p38δ abundance values are reported beneath individual lanes. (D) MDA-MB231 cells were treated with either vehicle (DMSO), exemplary compound 50 (250 nM), or exemplary compound 46 (250 nM) for 24 hours before re-plating onto new plastic in fresh medium for an additional 24, 48, or 72 hours (“washout” conditions).
(§3) Cell culture. MDA-MB-231 and HeLa cells were obtained from the American Type Culture Collection (ATCC), cultured in RPMI-1640 (1×) and DMEM (1×) medium, respectively, containing 10% fetal bovine serum (FBS) and 1% penicillin-streptomycin and grown in a humidified incubator at 37° C. and 5% CO2.
(§4) Lysates from MDA-MB-231 cells were washed once with ice cold PBS (1×), followed by lysis in buffer containing 25 mM Tris [pH 7.5], 0.25% sodium deoxycholate, 1% Triton X-100, supplemented with 1× protease inhibitor cocktail (Roche) and phosphatase inhibitors (10 mM NaF, 1 mM Na3VO4, and 20 mM β-glycerophosphate), unless otherwise noted. Lysates were spun at 14,000×g for 10 minutes at 4° C. and supernatant was evaluated for protein content using a Pierce BCA Protein Assay (Thermo Fisher Scientific). 25 to 50 μg of protein was loaded onto 10% SDS-PAGE gels or 4-20% Criterion TGX precast gradient gels (Bio-Rad), transferred to nitrocellulose membranes, and probed with the specified antibodies overnight at 4° C. in 1×TBS-Tween (Tris buffered saline plus 0.02% Tween 20) containing 5% non-fat milk. Immunoblots were visualized using a Bio-Rad ChemiDoc imaging instrument and subsequently processed and quantified using the accompanying Bio-Rad ImageLab software.
(§5) MDA-MB-231 cells were plated at 3×10^5 cells per well in a 6-well dish, allowed to adhere overnight, and switched to serum-free RPMI-1640 (1×) media for 16 hours. Cells were then pre-treated with cycloheximide (Sigma) at 100 μg mL^−1 for 1 hour prior to adding either vehicle (DMSO) or PROTAC (250 nM). At the indicated timepoints, cells were immediately placed on ice, rinsed with 1×PBS, lysed, and boiled.
(§6) MDA-MB-231 cells were plated at 1.5×10^5 cells per well in a 6-well dish and allowed to adhere overnight. On the following day, all cells were treated with either vehicle (DMSO) or PROTAC (250 nM). […]

p38δ [2] = molecular target: T2, p38δ (Homo sapiens, UniProt O15264); assay: as above; type: cell-based; details: MDA-MB-231 cells, western blot
T2 construct: endogenous in cells; host or cells: MDA-MB-231 (intact cells for degradation; cleared cell lysate for CETSA)
T2 sequence (O15264 1-365): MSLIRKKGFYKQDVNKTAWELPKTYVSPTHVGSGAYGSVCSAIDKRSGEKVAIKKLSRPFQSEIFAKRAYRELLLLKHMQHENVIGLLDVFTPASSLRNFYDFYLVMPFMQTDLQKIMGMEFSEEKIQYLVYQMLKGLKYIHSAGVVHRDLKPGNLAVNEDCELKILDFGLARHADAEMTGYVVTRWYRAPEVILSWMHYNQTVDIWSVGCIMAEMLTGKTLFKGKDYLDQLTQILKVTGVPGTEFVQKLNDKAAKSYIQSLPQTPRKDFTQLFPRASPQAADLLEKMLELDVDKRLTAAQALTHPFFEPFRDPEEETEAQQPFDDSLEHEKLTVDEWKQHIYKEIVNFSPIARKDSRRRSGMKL
Experimental: as §1, §2, §3, §4, §5, §6

p38α [3] = molecular target: T1, p38α; assay: Cellular assay of target protein degradation (MDA-MB-231 cells, ELISA); type: cell-based
Experimental: (§7) Protocol of the cellular assay of target protein degradation (MDA-MB-231 cells, ELISA).
(§8) For detection Cell Signaling PathScan Sandwich ELISA Catalog#12850 was used. MDA-MB-231 cells and […] were cultured in ATCC DMEM+ATCC FBS and plated 40,000/well 100 μl/well in RPMI P/S with 5% CSS Omega (bovine) serum into a 96 well plate. The cells were grown for a minimum of 3 days, dosed with compounds in 0.1% DMSO (diluted with 5% CSS) and incubated with aspiration for 4 hours. 100 μl of 1× Cell Signaling lysis buffer #9803 (36 mL dH2O+4 mL Cell Signaling lysis buffer) was added. The incubation was placed on cold room shaker for 10 minutes at speed 8-9.5 μl to 100 μL of Diluent was transferred to ELISA plate (0.15 μg/mL-0.075 μg/mL) and stored at 4° C. overnight on cold room shaker speed 5 (gentle swirl) and then shaken next morning at 37° C. for 30 minutes. The preparation was washed 4×200 μl with ELISA wash buffer and aspirated with eight-channel aspirator. 100 μl/well of target protein detection antibody was added after, which the preparation was covered and shaken at 37° C. for 1 hour. 100 μl TMB was added, and the mixture was shaken for 5 min while under observation. When TMB turned light blue, 100 μl of Stop solution was added, and the mixture was shaken and read at 450 nm. Also read at 562 nm for background subtraction.

p38δ [4] = molecular target: T2, p38δ; assay: as above; type: cell-based; details: for DC50: read-out: p38δDC50/nM [MDA-MB-231]
Experimental: as §7, §8

cMET = molecular target: T3, cMET (Homo sapiens, UniProt P08581); assay: as above; type: cell-based
T3 construct: endogenous in cells; host or cells: MDA-MB-231
Experimental: as §7, §8

MAK = molecular target: T4, MAK (Homo sapiens, UniProt P20794); assay: KINOMEscan in vitro kinase binding; details: screened at 1000 nM; lower number = stronger binding
T4 construct: purchased DiscoverRx Corporation (KINOMEscan platform, service)
Experimental: In Vitro Kinase Binding Affinity Determination for Example 1 and Example 2.
PROTAC in vitro binding affinities (Kd) to c-Met was determined using the KINOMEscan™ platform (DiscoverRx Corporation). The compounds were solubilized in DMSO and sent to DiscoverRx Corporation as 10 μM stock solutions.
Example 1 and Example 2 were screened at a 1000 nM concentration, and the results of the binding interactions are reported in “% Ctrl”, where a lower number indicates stronger binding. % Ctrl=[(test compound signal−positive control signal)/(negative control signal−positive control signal)]×100, wherein the negative control was DMSO.

[5] = read-out: p38α DC50 (concentration at which half-maximal degradation is achieved)

T1 sequence (Q16539 whole entry, canonical isoform): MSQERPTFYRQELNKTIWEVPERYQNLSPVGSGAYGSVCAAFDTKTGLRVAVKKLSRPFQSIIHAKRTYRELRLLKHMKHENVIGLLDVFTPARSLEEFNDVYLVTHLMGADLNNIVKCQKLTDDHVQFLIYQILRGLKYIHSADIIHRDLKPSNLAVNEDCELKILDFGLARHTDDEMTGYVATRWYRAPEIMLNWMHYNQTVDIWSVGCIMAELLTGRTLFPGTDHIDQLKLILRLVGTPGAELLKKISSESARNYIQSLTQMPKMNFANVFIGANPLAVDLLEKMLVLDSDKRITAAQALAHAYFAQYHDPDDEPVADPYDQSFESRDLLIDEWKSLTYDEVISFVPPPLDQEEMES
T3 sequence (P08581 25-1390): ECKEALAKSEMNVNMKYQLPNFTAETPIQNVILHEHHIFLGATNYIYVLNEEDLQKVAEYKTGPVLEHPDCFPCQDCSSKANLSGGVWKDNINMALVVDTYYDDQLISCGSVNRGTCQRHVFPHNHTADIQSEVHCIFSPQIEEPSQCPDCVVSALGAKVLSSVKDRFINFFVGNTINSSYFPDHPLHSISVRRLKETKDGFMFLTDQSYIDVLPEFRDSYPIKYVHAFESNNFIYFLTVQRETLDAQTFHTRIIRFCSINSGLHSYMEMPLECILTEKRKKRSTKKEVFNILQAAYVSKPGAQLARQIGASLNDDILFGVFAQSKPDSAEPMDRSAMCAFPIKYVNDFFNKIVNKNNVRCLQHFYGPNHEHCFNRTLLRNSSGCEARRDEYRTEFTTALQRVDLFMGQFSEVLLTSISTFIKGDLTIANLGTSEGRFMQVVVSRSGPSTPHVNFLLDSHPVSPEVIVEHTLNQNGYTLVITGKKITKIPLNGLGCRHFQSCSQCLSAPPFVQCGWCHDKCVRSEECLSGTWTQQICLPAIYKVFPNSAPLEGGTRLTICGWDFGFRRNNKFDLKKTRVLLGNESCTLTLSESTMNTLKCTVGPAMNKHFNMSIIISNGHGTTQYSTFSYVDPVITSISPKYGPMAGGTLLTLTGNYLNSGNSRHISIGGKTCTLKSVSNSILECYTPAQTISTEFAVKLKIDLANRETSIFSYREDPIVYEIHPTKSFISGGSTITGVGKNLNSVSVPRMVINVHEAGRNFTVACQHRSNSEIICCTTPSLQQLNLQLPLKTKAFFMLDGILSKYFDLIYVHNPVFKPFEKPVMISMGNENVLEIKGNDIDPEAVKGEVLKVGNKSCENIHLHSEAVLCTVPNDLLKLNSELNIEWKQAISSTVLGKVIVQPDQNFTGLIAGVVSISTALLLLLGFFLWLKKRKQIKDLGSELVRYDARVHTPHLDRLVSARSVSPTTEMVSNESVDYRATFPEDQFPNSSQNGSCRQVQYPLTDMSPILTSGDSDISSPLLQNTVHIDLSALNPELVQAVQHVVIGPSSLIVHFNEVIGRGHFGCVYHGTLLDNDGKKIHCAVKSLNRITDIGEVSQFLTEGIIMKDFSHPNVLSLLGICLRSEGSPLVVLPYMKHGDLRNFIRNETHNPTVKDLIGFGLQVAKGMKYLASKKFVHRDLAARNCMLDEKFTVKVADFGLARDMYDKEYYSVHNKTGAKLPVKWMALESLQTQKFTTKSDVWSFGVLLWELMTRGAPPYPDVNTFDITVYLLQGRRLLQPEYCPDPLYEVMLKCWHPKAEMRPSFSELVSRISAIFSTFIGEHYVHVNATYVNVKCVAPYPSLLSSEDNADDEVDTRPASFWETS
T4 sequence (P20794 whole entry): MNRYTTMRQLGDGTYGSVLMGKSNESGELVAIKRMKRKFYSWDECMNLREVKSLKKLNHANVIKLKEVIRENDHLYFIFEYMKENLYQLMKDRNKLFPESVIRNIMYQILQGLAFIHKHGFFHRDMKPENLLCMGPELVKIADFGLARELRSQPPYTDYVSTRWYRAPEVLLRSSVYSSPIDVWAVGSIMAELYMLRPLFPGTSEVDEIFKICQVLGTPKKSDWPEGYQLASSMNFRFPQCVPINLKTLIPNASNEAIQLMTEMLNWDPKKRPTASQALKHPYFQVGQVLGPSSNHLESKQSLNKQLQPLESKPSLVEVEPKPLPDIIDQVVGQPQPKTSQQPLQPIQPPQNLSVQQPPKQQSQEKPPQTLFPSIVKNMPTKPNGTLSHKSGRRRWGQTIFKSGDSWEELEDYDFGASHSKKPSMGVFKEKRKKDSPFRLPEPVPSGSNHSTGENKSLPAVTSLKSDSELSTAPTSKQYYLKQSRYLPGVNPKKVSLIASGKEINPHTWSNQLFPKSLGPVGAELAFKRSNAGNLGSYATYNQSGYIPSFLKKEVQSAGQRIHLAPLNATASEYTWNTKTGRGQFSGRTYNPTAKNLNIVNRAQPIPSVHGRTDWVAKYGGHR

| DC50 (p38α [1]; read-out: p38α DC50) | Dmax (p38α [1]) | DC50 (p38δ [2]) | Dmax (p38δ [2]) | DC50 (p38α [3]) | Dmax (p38α [3]) | Dmax (p38δ [4]) | DC50 (p38δ [4]) | DC50 (p38α [1]; [5]) | Dmax (cMET) | % Ctrl (MAK) | SMILES |
| --- | --- | --- | --- | --- | --- | --- | --- | --- | --- | --- | --- |
| ≥ 5000 nM | 17% | 4900 nM | 52% | – | – | – | – | – | – | – | COc1cc2c(Oc3ccc(NC(=O)C4(C(=O)Nc5ccc(F)cc5)CC4)cc3F)ccnc2cc1OCCCOCCOCCCOc1cc(-c2scnc2C)ccc1CNC(=O)[C@@H]1C[C@@H](O)CN1C(=O)[C@H](C(C)C)N1Cc2ccccc2C1=O [Ex. 5] |
| > 5000 nM | 25% | > 5000 nM | 44% | > 5000 nM | 27% | 43% | > 5000 nM | – | – | – | COc1cc2c(Oc3ccc(NC(=O)C4(C(=O)Nc5ccc(F)cc5)CC4)cc3F)ccnc2cc1OCCCCOCCCCOc1cc(-c2scnc2C)ccc1CNC(=O)[C@@H]1C[C@@H](O)CN1C(=O)[C@H](C(C)C)N1Cc2ccccc2C1=O [Ex. 45] |
| > 5000 nM | 20% | > 5000 nM | 33% | > 5000 nM | 12% | 23% | > 5000 nM | – | – | – | COc1cc2c(Oc3ccc(NC(=O)C4(C(=O)Nc5ccc(F)cc5)CC4)cc3F)ccnc2cc1OCCCOCCCOCCCOc1cc(-c2scnc2C)ccc1CNC(=O)[C@@H]1C[C@@H](O)CN1C(=O)[C@H](C(C)C)N1Cc2ccccc2C1=O [Ex. 47, N-(3-fluoro-4-((7-(3-(3-(3-(2-(((2S,4R)-4-hydroxy-1-((S)-3-methyl-2-(1-oxoisoindolin-2-yl)butano-yl)pyrrolidine-2-carboxamido)methyl)-5-(4-methylthiazol-5-yl)phenoxy)propoxy)-propoxy)propoxy)-6-methoxyquinolin-4-yl)oxy)phenyl)-N-(4-fluorophenyl)cyclopropane-1,1-dicarboxamide] |
| – | 99.4% | 91.7 nM | 91% | 18.8 nM | 99% | 91% | 91.7 nM | 18.8 nM | 44% | – | COc1cc2c(Oc3ccc(NC(=O)C4(C(=O)Nc5ccc(F)cc5)CC4)cc3F)ccnc2cc1OCCCOCCOCCC(=O)N[C@H](C(=O)N1C[C@H](O)C[C@H]1C(=O)NCc1ccc(-c2scnc2C)cc1)C(C)(C)C [Ex. 48, N-(3-fluoro-4-((7-(3-(2-(3-(((S)-1-((2S,4R)-4-hydroxy-2-((4-(4-methylthiazol-5-yl)benzyl)carbamoyl)pyrrolidin-1-yl)-3,3-dimethyl-1-oxobutan-2-yl)amino)-3-oxopropoxy)ethoxy)-propoxy)-6-methoxyquinolin-4-yl)oxy)phenyl)-N-(4-fluorophenyl)cyclopropane-1,1-dicarboxa-mide] |
| – | 91% | 51.4 nM | 81% | 40.1 nM | 91% | 81% | 51.4 nM | 40.1 nM | 49% | – | COc1cc2c(Oc3ccc(NC(=O)C4(C(=O)Nc5ccc(F)cc5)CC4)cc3F)ccnc2cc1OCCOCCOCCC(=O)N[C@H](C(=O)N1C[C@H](O)C[C@H]1C(=O)NCc1ccc(-c2scnc2C)cc1)C(C)(C)C [Ex. 49, N-(3-fluoro-4-((7-(2-(2-(3-(((S)-1-((2S,4R)-4-hydroxy-2-((4-(4-methylthiazol-5-yl)benzyl)carba-moyl)pyrrolidin-1-yl)-3,3-dimethyl-1-oxobutan-2-yl)amino)-3-oxopropoxy)ethoxy)ethoxy)-6-methoxyquinolin-4-yl)oxy)phenyl)-N-(4-fluorophenyl)cyclopropane-1,1-dicarboxamide] |
| – | – | – | – | – | – | – | – | – | – | 55 % Ctrl | COc1cc2c(Oc3ccc(NC(=O)C4(C(=O)Nc5ccc(F)cc5)CC4)cc3F)ccnc2cc1OCCCN1CCOCC1 [Foretinib, foretinib, reference compound] |
